Experimental findings from the Kinase Knowledgebase extract (Sharma et al. 2016) are described below.

In the assay the target is PIK3CA (human) (UniProt P42336). The assay can be described thus: Inhibition of PIK3CA Kinase Activity.
PIK3CA (human), sequence (P42336 whole entry, looked up): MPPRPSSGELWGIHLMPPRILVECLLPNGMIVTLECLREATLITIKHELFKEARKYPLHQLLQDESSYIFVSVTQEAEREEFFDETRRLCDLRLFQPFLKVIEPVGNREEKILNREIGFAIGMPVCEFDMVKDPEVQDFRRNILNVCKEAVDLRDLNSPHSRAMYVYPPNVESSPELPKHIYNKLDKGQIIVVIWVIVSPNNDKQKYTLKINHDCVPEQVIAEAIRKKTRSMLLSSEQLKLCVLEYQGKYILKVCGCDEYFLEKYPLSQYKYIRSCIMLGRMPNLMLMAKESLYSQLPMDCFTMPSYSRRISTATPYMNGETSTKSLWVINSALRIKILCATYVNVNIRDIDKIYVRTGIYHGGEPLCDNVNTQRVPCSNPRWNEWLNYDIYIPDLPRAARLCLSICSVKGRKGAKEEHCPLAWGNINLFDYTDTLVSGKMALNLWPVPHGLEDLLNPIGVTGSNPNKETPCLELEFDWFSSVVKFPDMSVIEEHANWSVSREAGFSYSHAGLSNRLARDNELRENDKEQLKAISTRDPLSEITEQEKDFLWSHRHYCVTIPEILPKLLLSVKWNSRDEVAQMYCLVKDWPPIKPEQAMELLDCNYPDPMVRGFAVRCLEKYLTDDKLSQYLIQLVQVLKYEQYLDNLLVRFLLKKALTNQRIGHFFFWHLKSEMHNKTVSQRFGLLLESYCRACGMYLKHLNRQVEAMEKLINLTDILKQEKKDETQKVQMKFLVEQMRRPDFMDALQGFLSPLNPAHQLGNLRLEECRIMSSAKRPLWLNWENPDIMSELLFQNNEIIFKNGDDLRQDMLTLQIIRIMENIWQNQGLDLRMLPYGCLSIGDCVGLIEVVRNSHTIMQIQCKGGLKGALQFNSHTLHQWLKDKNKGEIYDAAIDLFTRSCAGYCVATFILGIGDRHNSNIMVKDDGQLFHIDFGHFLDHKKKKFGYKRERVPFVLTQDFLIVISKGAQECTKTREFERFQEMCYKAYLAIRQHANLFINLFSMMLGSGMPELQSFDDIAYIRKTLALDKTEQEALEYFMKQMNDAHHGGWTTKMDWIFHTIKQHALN

One may read the IC50 as the midpoint of a concentration-inhibition curve. Lower therefore signals inhibition by little substance. Compound `COCc1nc2c(c(N3CCOc4ccc(-c5cnc6[nH]c(C)nc6c5)cc4C3)n1)CC(C)(C)CC2` showed an IC50 of 10 to 50 nM.

Compound `CCNc1nc2ccc(-c3ccc4c(c3)CN(c3ccnc5cc(F)ccc35)CCO4)cc2[nH]1` had an IC50 not above 10 nM.

Consider `CC(=O)OCc1nc(C)c(Cc2ccc(F)cc2)c(N2CCOc3ccc(-c4ccc5[nH]c(C)nc5c4)cc3C2)n1`, for which the IC50 is 10 to 50 nM.

The compound `CN(C)Cc1nc2c(c(N3CCOc4ccc(-c5ccc6[nH]c(CF)nc6c5)cc4C3)n1)CC(C)(C)CC2` gave an IC50 not above 10 nM.

`Cc1nc(N2CCOc3ccc(-c4ccc(N)nc4)cc3C2)c2ccccc2n1` displayed a 50% inhibitory concentration (IC50) of 250 to 1000 nM.

Consider `Cc1nc2cc(-c3ccc4c(c3)CN(c3nc(CN(C)C)ncc3C(C)C)CCO4)ccc2[nH]1`, for which the IC50 was 10 to 50 nM.

Compound `Cc1nc2ccc(-c3ccc4c(c3)CN(c3ncnc(C)c3Cc3cccc(Cl)c3)CCO4)cc2[nH]1` yielded an IC50 of 10 to 50 nM.

As for `Cc1nc2ccc(-c3ccc4c(c3)CN(c3cc(C(F)(F)F)nc5ccccc35)CCO4)cc2[nH]1`, the IC50 is 50 to 250 nM.

On to `Cc1nc(CN(C)C)nc(N2CCOc3ccc(-c4cnc5sc(N)nc5c4)cc3C2)c1-c1ccccc1`, for which the IC50 lay within 10 to 50 nM.

`Cc1ccc2ncnc(N3CCOc4ccc(-c5cnc6nc(N)[nH]c6c5)cc4C3)c2c1` came in with an IC50 not above 10 nM.

Turning to `COc1ccc2c(N3CCOc4ccc(-c5cnc6nc(C)[nH]c6c5)cc4C3)ncnc2c1`, the IC50 is not above 10 nM.

With `Cc1nc(CN(C)C)nc(N2CCOc3ccc(-c4cnc5sc(N)nc5c4)cc3C2)c1Br`, the IC50 was in the range of 10 to 50 nM.

`COc1ccc2ncnc(N3CCOc4ccc(-c5ccc6nc(C)[nH]c6c5)cc4C3)c2c1` showed an IC50 of 50 to 250 nM.

Consider `C=CCc1c(C)nc(CN(C)C)nc1N1CCOc2ccc(-c3cnc4sc(N)nc4c3)cc2C1`, for which the IC50 was not above 10 nM.

In turn, `C[C@H]1CCc2c(ncnc2N2CCOc3ccc(-c4cnc5nc(C6CC6)[nH]c5c4)cc3C2)C1` showed an IC50 of 10 to 50 nM.

In turn, `Cc1nc2cc(-c3ccc4c(c3)CN(c3nc(C(C)N5CCCC5)nc5c3CC(C)(C)CC5)CCO4)cnc2[nH]1` (stereo unspecified) registered an IC50 of 50 to 250 nM.

As for `CC1=Cc2ncnc(N3CCOc4ccc(-c5cnc6nc(C)[nH]c6c5)cc4C3)c2CC1(C)C`, the IC50 was 10 to 50 nM.

In turn, `COc1ccc2c(N3CCOc4ccc(-c5ccc(-c6ncc[nH]6)cc5)cc4C3)nc(C)nc2c1` yielded an IC50 not above 10 nM.

Consider `COc1c(OCc2ccc3ccccc3n2)ccc2c(N3CCOc4ccc(-c5ccc6nc(C)[nH]c6c5)cc4C3)ncnc12`, for which the IC50 was 250 to 1000 nM.

`Cc1nc2ccc(-c3ccc4c(c3)CN(c3ncnc5cc(Cl)ccc35)CCO4)cc2[nH]1`: the IC50 was in the range of 50 to 250 nM.

Compound `CN(C)Cc1nc2c(c(N3CCOc4ccc(-c5ccc(N)nc5)cc4C3)n1)CC(C)(C)CC2` displayed an IC50 of 50 to 250 nM.

As to `CCNc1nc2ccc(-c3ccc4c(c3)CN(c3cc(C)nc5ccccc35)CCO4)cc2[nH]1`, the IC50 was not above 10 nM.

Take `CC[C@H](C)NCc1nc2c(c(N3CCOc4ccc(-c5cnc6nc(C)[nH]c6c5)cc4C3)n1)CC(C)(C)CC2`: the IC50 was 10 to 50 nM.

As for `Cc1nc(CN(C)C)nc(N2CCOc3ccc(-c4cnc5sc(N)nc5c4)cc3C2)c1CC1CC1`, the IC50 was not above 10 nM.

`CCC1CCc2ncnc(N3CCOc4ccc(-c5ccc6nc(C)[nH]c6c5)cc4C3)c2C1` (stereo unspecified) came in with an IC50 of 10 to 50 nM.

Compound `Cn1c(N)nc2cc(-c3ccc4c(c3)CN(c3ccnc5ccccc35)CCO4)ccc21` had an IC50 of 250 to 1000 nM.

`COc1cc2c(N3CCOc4ccc(-c5ccc6nc(C)[nH]c6c5)cc4C3)ncnc2cc1O` came in with an IC50 of 10 to 50 nM.

For the compound `CC1(C)CCc2ncnc(N3CCOc4ccc(-c5cnc6[nH]c(CF)nc6c5)cc4C3)c2C1`, the IC50 lay in the range of 10 to 50 nM.

Take `Cc1nc2ccc(-c3ccc4c(c3)CN(c3ncnc5cc(I)ccc35)CCO4)cc2[nH]1`: the IC50 lay in the range of 10 to 50 nM.

As to `COC(=O)Nc1nc2ncc(-c3ccc4c(c3)CN(c3ncnc5c3CC(C)(C)CC5)CCO4)cc2[nH]1`, the IC50 is not above 10 nM.

As for `Cc1nc2cc(-c3ccc4c(c3)CN(c3nc(CN(C)C)nc(C)c3Cc3ccc(F)cc3)CCO4)cnc2[nH]1`, the IC50 is not above 10 nM.

Compound `CN1CC[C@@H](NS(=O)(=O)c2cc(-c3ccc4c(c3)CN(c3ncnc5c3CC(C)(C)CC5)CCO4)cnc2N)C1` had an IC50 of 50 to 250 nM.

Compound `CCNc1nc2ccc(-c3ccc4c(c3)CN(c3ncnc5cc(OC)c(OC)cc35)CCO4)cc2[nH]1` had an IC50 of 10 to 50 nM.

Take `Cc1nc2cc(-c3ccc4c(c3)CN(c3nc(CN(C)C)nc(C)c3CC(C)C)CCO4)ccc2[nH]1`: the IC50 is 250 to 1000 nM.

As to `Nc1ccc(-c2ccc3c(c2)CN(c2ccnc4ccccc24)CCO3)cn1`, the IC50 is 50 to 250 nM.

In turn, `CN(C)CCNS(=O)(=O)c1cc(-c2ccc3c(c2)CN(c2ncnc4c2CC(C)(C)CC4)CCO3)cnc1N` gave an IC50 of 50 to 250 nM.
